The record followed here is US11180495B2 (Abbisko Therapeutics Co., Ltd., priority 2017, dated 2021).

Usually IC50 stands for the concentration that inhibits the measured activity by half.

One experiment deals with T1, CSF-1R (Homo sapiens, UniProt P07333).
T1 construct: 3.95 nM of CSF-1R, 500 μM of ATP and 0.2 mg/mL of polypeptide
The experiment can be described thus: CSF-1R in vitro biochemical kinase study (ADP-Glo assay). The settings on record: 3.95 nM CSF-1R, 500 μM ATP, 30° C. 60 min, read-out: Enzymatic experiment CSF-1R IC50. Here is the method: In the present invention, the inhibitory activity of compounds against the CSF-1R activity was determined by using CSF-1R ADP-Glo assay. The compound-mediated inhibition effect was achieved by inhibiting the production of ADP from consumption of ATP, and the activities of compounds were evaluated by using the ADP-Glo kit (Promega, cat. No. V9101). The specific experimental process was as follows: • 1. The kinase reaction performed in the present invention was carried out in a 384-well plate (Perkinelmer, cat. No. 6007290), and 3.95 nM of CSF-1R, 500 μM of ATP and 0.2 mg/mL of polypeptide (Poly (Glu4, Try1), Sigma, cat. No. P0275) were respectively weighed and added to each well: • 2. following reagents were then added to each well to reach the final reaction system: 40 mM Tris, pH 7.5, 20 mM MgCl2, 0.01% Triton X-100, 0.1 mg/mL BSA, 2.5 mM DTT and 0.1% DMSO; • 3. the reaction was conducted at 30° C. for 60 min; • 4. then an equal volume of stop solution (ADP-Glo) was added to the kinase reaction system; • 5. the mixed solution was incubated at 25° C. for 60 min, and the kinase reaction was then terminated; • 6. a two-fold volume of detection reagent was then added to each well; • 7. the mixed solution was incubated at 25° C. for 30 min; • 8. the compound IC50 value was measured by using a plate reader (Tecan, M1000) and a four-parameter curve was generated in Graphpad Prism. B. KIT/PDGFRA In Vitro Biochemical Kinase Study • 1. Preparation of 1-fold kinase buffer and stop solution • 1.1 1-fold kinase buffer: 50 mM HEPES, pH 7.5, 0.0015% Brij-35. • 1.2 stop solution: 100 mM HEPES, pH 7.5, 0.015% Brij-35, 0.2% Coating Reagent #3 50 mM EDTA • 2. Preparation of compound solution • 2.1 Dilution of compound solution • 1) The final concentration of the compound solution was 40 μM. and the concentration of the prepared stock solution was 50 times of the final concentration, i.e., 2 mM. • 2) 80 μL of 100% DMSO was added to the second well of the 96-well plate, then 20 μL of 10 mM compound solution was added, and thereby 2 mM compound solution was prepared, 60 μL of 100% DMSO was added to other wells, 20 μL of compound was taken from the second well, added to the third well and diluted by 4 times. This serial 4-time dilution was conducted in sequence for the total of 10 concentrations. • 2.2 5-fold compound solution transferred to a reaction plate • 1) 10 μL of solution was taken from each well of the above 96-well plate and added to another 96-well plate, and 90 μL of kinase buffer was added. • 2) 5 μL of solution was taken from the above 96-well plate and added to a 384-well reaction plate. • 2.3 Kinase reaction • 1) KIT/PDGFRA kinase was added to the 1-fold kinase buffer solution to obtain a 2.5-fold kinase solution. • 2) FAM-labeled polypeptide and ATP were added to the 1-fold kinase buffer solution to obtain a 2.5-fold substrate solution. • 3) 10 μL of 2.5-fold kinase solution was added to the 384-well reaction plate, which already contained 5 μL of 5-fold compound in 10% DMSO. And the mixed solution was incubated at room temperature for 10 min. • 4) 10 μL of 2.5-fold substrate solution was added to the 384-well reaction plate. • 5) Kinase reaction and termination: the mixed solution was incubated at 28° C. for a certain period of time, and 25 μL of stop solution was added to stop the reaction. • 2.4 Data reading of Caliper EZ Reader II • 2.5 Calculation of percent inhibition and IC50 • 1) Percent conversion data were copied from the Caliper EZ Reader. • 2) Percent conversion was converted into percent inhibition data, wherein, max referred to percent conversion of the DMSO control, and min referred to percent conversion of the negative control without kinase activity. Percent inhibition=(max−conversion)/(max−min)*100. • 3) The IC50 value was fitted with XLFit excel add-in version 5.4.0.8: Fitting formula: Y=Bottom+(Top−Bottom)/(1+(IC50/X)^HillSlope).

A further experiment deals with KIT (Homo sapiens, UniProt P10721). The experiment can be described thus: KIT in vitro biochemical kinase study (Caliper EZ Reader). The settings on record: FAM-labeled polypeptide, Caliper EZ Reader II; read-out: Enzymatic experiment KIT IC50. Here is the method:
(§1) In the present invention, the inhibitory activity of compounds against the CSF-1R activity was determined by using CSF-1R ADP-Glo assay. The compound-mediated inhibition effect was achieved by inhibiting the production of ADP from consumption of ATP, and the activities of compounds were evaluated by using the ADP-Glo kit (Promega, cat. No. V9101). The specific experimental process was as follows: • 1. The kinase reaction performed in the present invention was carried out in a 384-well plate (Perkinelmer, cat. No. 6007290), and 3.95 nM of CSF-1R, 500 μM of ATP and 0.2 mg/mL of polypeptide (Poly (Glu4, Try1), Sigma, cat. No. P0275) were respectively weighed and added to each well: • 2. following reagents were then added to each well to reach the final reaction system: 40 mM Tris, pH 7.5, 20 mM MgCl2, 0.01% Triton X-100, 0.1 mg/mL BSA, 2.5 mM DTT and 0.1% DMSO; • 3. the reaction was conducted at 30° C. for 60 min; • 4. then an equal volume of stop solution (ADP-Glo) was added to the kinase reaction system; • 5. the mixed solution was incubated at 25° C. for 60 min, and the kinase reaction was then terminated; • 6. a two-fold volume of detection reagent was then added to each well; • 7. the mixed solution was incubated at 25° C. for 30 min; • 8. the compound IC50 value was measured by using a plate reader (Tecan, M1000) and a four-parameter curve was generated in Graphpad Prism. B. KIT/PDGFRA In Vitro Biochemical Kinase Study • 1. Preparation of 1-fold kinase buffer and stop solution • 1.1 1-fold kinase buffer: 50 mM HEPES, pH 7.5, 0.0015% Brij-35. • 1.2 stop solution: 100 mM HEPES, pH 7.5, 0.015% Brij-35, 0.2% Coating Reagent #3 50 mM EDTA • 2. Preparation of compound solution • 2.1 Dilution of compound solution • 1) The final concentration of the compound solution was 40 μM. and the concentration of the prepared stock solution was 50 times of the final concentration, i.e., 2 mM. • 2) 80 μL of 100% DMSO was added to the second well of the 96-well plate, then 20 μL of 10 mM compound solution was added, and thereby 2 mM compound solution was prepared, 60 μL of 100% DMSO was added to other wells, 20 μL of compound was taken from the second well, added to the third well and diluted by 4 times. […]

The target of a further experiment is PDGFRA (Homo sapiens, UniProt P16234). The experiment can be described thus: PDGFRA in vitro biochemical kinase study (Caliper EZ Reader). The settings on record: FAM-labeled polypeptide, Caliper EZ Reader II; read-out: Enzymatic experiment PDGFRA IC50. The method, then:
as §1

T1 sequence (P07333 20-972): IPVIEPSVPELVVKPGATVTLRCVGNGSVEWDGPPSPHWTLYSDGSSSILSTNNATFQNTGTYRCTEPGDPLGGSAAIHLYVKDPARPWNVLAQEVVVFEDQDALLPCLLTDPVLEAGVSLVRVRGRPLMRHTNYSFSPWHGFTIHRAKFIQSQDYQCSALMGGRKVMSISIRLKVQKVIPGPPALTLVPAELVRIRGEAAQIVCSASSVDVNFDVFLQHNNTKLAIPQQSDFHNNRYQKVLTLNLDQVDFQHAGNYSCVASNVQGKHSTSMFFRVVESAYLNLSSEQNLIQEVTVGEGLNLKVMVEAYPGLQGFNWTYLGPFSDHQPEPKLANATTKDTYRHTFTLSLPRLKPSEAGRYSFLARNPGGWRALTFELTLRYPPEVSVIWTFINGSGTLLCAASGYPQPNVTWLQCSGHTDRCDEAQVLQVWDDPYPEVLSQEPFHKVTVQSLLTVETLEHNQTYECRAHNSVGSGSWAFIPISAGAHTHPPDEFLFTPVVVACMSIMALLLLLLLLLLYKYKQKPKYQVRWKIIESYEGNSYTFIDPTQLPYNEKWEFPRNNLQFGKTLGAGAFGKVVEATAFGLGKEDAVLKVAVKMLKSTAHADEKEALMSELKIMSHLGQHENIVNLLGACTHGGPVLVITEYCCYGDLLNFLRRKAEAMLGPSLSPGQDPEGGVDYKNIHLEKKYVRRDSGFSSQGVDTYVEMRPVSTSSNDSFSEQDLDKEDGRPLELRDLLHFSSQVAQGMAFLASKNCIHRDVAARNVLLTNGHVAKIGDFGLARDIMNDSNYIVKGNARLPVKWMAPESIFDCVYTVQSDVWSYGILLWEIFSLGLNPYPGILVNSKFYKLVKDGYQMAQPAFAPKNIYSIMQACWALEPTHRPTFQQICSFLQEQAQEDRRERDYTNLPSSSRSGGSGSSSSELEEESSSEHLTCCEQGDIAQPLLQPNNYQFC
Chain of PDGFRA (P16234 24-1089): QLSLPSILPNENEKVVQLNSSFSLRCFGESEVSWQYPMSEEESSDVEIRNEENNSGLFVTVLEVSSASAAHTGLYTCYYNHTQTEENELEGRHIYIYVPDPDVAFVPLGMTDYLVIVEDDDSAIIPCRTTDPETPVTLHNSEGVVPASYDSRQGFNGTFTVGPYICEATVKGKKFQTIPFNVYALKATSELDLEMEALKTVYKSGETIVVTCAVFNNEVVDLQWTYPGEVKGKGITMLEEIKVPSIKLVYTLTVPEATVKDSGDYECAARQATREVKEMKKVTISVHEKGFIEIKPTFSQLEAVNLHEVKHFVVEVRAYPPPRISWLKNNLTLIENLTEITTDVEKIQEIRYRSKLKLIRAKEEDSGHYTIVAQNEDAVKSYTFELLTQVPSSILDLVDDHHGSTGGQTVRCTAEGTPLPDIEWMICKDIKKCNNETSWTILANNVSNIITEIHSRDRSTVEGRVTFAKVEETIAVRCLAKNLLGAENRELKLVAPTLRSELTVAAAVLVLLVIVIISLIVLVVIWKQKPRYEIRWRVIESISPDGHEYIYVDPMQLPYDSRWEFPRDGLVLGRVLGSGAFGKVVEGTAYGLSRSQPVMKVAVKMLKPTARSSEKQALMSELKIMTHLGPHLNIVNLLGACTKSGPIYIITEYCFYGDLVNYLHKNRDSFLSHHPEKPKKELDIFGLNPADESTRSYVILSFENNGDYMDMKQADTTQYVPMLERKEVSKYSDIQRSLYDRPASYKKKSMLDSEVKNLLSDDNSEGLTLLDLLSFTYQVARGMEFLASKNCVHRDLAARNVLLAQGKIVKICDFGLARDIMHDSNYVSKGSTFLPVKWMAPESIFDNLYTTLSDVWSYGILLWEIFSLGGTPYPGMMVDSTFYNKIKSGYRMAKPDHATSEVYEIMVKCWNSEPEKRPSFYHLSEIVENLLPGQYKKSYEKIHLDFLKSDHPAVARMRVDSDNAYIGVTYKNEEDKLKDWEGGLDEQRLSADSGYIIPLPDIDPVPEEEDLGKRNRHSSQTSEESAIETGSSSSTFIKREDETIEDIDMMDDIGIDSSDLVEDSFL
Chain of KIT (P10721 26-976): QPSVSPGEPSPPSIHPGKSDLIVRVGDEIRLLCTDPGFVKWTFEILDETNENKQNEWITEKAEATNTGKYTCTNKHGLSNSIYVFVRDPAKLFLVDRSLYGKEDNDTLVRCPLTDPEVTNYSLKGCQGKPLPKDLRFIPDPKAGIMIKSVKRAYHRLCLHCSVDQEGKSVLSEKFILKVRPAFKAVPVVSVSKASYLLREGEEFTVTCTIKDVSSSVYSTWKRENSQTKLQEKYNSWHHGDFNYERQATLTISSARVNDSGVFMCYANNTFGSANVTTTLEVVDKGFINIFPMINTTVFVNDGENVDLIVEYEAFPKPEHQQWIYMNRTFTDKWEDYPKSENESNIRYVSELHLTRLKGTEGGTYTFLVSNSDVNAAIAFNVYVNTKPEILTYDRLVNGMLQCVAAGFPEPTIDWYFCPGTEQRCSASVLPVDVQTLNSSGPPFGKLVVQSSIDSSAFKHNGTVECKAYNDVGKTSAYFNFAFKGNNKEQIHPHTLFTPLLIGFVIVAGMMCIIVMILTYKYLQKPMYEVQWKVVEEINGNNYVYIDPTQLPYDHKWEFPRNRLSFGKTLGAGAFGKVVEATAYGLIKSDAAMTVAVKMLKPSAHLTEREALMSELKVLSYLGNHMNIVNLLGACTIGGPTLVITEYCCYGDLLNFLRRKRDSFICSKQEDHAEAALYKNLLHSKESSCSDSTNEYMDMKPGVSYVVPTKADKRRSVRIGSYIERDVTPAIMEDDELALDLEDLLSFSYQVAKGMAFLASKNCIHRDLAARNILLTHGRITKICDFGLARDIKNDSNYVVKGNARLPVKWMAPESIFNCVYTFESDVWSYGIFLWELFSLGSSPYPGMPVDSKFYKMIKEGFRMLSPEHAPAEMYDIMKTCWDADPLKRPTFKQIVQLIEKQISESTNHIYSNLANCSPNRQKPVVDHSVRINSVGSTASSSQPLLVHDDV

In the case of `Cc1nc(-c2cnc(NC(C)C)[nH]c2=O)ccc1Cc1c[nH]c2ncc(F)cc12` [Example 5, 5-(5-((5-fluoro-1H-pyrrolo[2,3-b]pyridin-3-yl)methyl)-6-methylpyridin-2-yl)-2-(isopropylamino)pyrimidin-4(3H)-one], the IC50 at CSF-1R came to 45.9 nM; at KIT, 222 nM; on PDGFRA, 9270 nM.

As for `Cc1nc(-c2cnc(NC(C)C)n(C)c2=O)ccc1Cc1c[nH]c2ncccc12` [Example 7, 5-(5-((1H-pyrrolo[2,3-b]pyridin-3-yl)methyl)-6-methylpyridin-2-yl)-2-(isopropylamino)-3-methylpyrimidin-4(3H)-one], the results for the half-inhibitory concentration (IC50) at CSF-1R, at KIT and at PDGFRA were 36.7 nM, 50.8 nM and 998 nM, respectively. With `Cc1nc(-c2cnc3n(c2=O)CCCN3C)ccc1Cc1c[nH]c2ncc(Cl)cc12` [Example 13, 3-(5-((5-chloro-1H-pyrrolo[2,3-b]pyridin-3-yl)methyl)-6-methylpyridin-2-yl)-9-methyl-6,7,8,9-tetrahydro-4H-pyrimido[1,2-a]pyrimidin-4-one], at CSF-1R, the IC50 was 65.6 nM. The same measure, in the same setting: to `Cc1nc(-c2cnc3n(c2=O)CCCN3C)ccc1Cc1c[nH]c2ncccc12` [Example 14, 3-(5-((1H-pyrrolo[2,3-b]pyridin-3-yl)methyl)-6-methylpyridin-2-yl)-9-methyl-6,7,8,9-tetrahydro-4H-pyrimido[1,2-a]pyrimidin-4-one] belongs 55.2 nM.

On to `Cc1nc(-c2cnc3n(c2=O)CCC(C)N3C)ccc1Cc1c[nH]c2ncc(Cl)cc12` (stereo not shown) [Example 15, 3-(5-((5-chloro-1H-pyrrolo[2,3-b]pyridin-3-yl)methyl)-6-methylpyridin-2-yl)-8,9-dimethyl-6,7,8,9-tetrahydro-4H-pyrimido[1,2-a]pyrimidin-4-one], for which, at CSF-1R, the half-maximal inhibitory concentration (IC50) stood at 49.5 nM. Still for that read-out and setting: as for `CCN1CCCn2c1ncc(-c1ccc(Cc3c[nH]c4ncc(Cl)cc34)c(C)n1)c2=O` [Example 16, 3-(5-((5-chloro-1H-pyrrolo[2,3-b]pyridin-3-yl)methyl)-6-methylpyridin-2-yl)-9-ethyl-6,7,8,9-tetrahydro-4H-pyrimido[1,2-a]pyrimidin-4-one], the figure is 45.6 nM; as for `CCN1CCCn2c1ncc(-c1ccc(Cc3c[nH]c4ncc(-c5cnn(C)c5)cc34)c(C)n1)c2=O` [Example 17], 5.35 nM; as for `Cc1nc(-c2cnc3n(c2=O)CCCN3C)ccc1Cc1c[nH]c2ncc(-c3cnn(C)c3)cc12` [Example 18, 9-methyl-3-(6-methyl-5-((5-(1-methyl-1H-pyrazol-4-yl)-1H-pyrrolo[2,3-b]pyridin-3-yl)methyl)pyridin-2-yl)-6,7,8,9-tetrahydro-4H-pyrimido[1,2-a]pyrimidin-4-one], 4.34 nM. In the case of `Cc1nc(-c2cnc3n(c2=O)CCCN3C)ccc1Cc1c[nH]c2ncc(F)cc12` [Example 20, 3-(5-((5-fluoro-1H-pyrrolo[2,3-b]pyridin-3-yl)methyl)-6-methylpyridin-2-yl)-9-methyl-6,7,8,9-tetrahydro-4H-pyrimido[1,2-a]pyrimidin-4-one], the half-maximal inhibitory concentration (IC50) on CSF-1R was found to be 46.1 nM. On the same count and under the same terms, to `Cc1cnc2[nH]cc(Cc3ccc(-c4cnc5n(c4=O)CCCN5C)nc3C)c2c1` [Example 21, 9-methyl-3-(6-methyl-5-((5-methyl-1H-pyrrolo[2,3-b]pyridin-3-yl)methyl)pyridin-2-yl)-6,7,8,9-tetrahydro-4H-pyrimido[1,2-a]pyrimidin-4-one] belongs 96.3 nM.

For the compound `COc1cnc2[nH]cc(Cc3ccc(-c4cnc5n(c4=O)CCCN5C)nc3C)c2c1` [Example 22, 3-(5-((5-methoxy-1H-pyrrolo[2,3-b]pyridin-3-yl)methyl)-6-methylpyridin-2-yl)-9-methyl-6,7,8,9-tetrahydro-4H-pyrimido[1,2-a]pyrimidin-4-one], the IC50 at CSF-1R is 43.5 nM.

Regarding `Cc1nc(-c2cnc3n(c2=O)CCCN3C)ccc1Cc1c[nH]c2ncc(O)cc12` [Example 23], on CSF-1R, the half-inhibitory concentration (IC50) worked out at 38.9 nM.
